Legend:
[1] = tested on: ENR+CD organoids (ISC to Paneth cell differentiation); assay: Primary screen: CCh-stimulated lysozyme secretion LYZ.S, 2.5-D 384-well ENR+CD organoid differentiation; assay type: cell-based, mouse; conditions: primary screen
Description: (§1) High-throughput screening.

[2] = tested on: ENR+CD organoids (ISC to Paneth cell differentiation); assay: Primary screen: basal (non-stimulated) lysozyme secretion LYZ.NS, 2.5-D 384-well ENR+CD organoid differentiation; assay type: cell-based, mouse; conditions: primary screen; for Z.LYZ.NS: standard z score
Description: as §1

[3] = tested on: ENR+CD organoids; assay: Primary screen: ATP (CellTiter-Glo 3D, CTG) cell number/viability, 2.5-D 384-well ENR+CD organoids; conditions: primary screen; for Z.CTG: standard z score;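 as to all read-outs here: compounds given at plating and again on day 3 over a 6-day differentiation from ENR+CV stem-cell-enriched precursors, ATP measured on day 6, plate median as control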
[4] = dose 0.08 uM, FC relative to plate median
[5] = dose 0.40 uM, FC relative to plate median
[6] = dose 2.00 uM, FC relative to plate median
[7] = dose 10.00 uM, FC relative to plate median
[8] = dose 0.08 uM, FC vs plate median
[9] = dose 0.40 uM, FC vs plate median
[10] = dose 2.00 uM, FC vs plate median
[11] = dose 10.00 uM, FC vs plate median

Compound | Dose.FC.LYZ.S [1, 4] [log2 fold change] | Dose.FC.LYZ.S [1, 5] [log2 fold change] | Dose.FC.LYZ.S [1, 6] [log2 fold change] | Dose.FC.LYZ.S [1, 7] [log2 fold change] | Dose.FC.LYZ.NS [2, 4] [log2 fold change] | Z.LYZ.NS ([2]; dose 0.08 uM) | Dose.FC.LYZ.NS [2, 5] [log2 fold change] | Z.LYZ.NS ([2]; dose 0.40 uM) | Dose.FC.LYZ.NS [2, 6] [log2 fold change] | Z.LYZ.NS ([2]; dose 2.00 uM) | Dose.FC.LYZ.NS [2, 7] [log2 fold change] | Z.LYZ.NS ([2]; dose 10.00 uM) | Dose.FC.CTG [3, 4] [log2 fold change] | Z.CTG ([3]; dose 0.08 uM) | Dose.FC.CTG [3, 5] [log2 fold change] | Z.CTG ([3]; dose 0.40 uM) | Dose.FC.CTG [3, 6] [log2 fold change] | Z.CTG ([3]; dose 2.00 uM) | Dose.FC.CTG [3, 7] [log2 fold change] | Z.CTG ([3]; dose 10.00 uM) | other results
CC(C)(C)c1cnc(CSc2cnc(NC(=O)C3CCNCC3)s2)o1 [SNS-032 (BMS-387032)] | 0.070 | −0.206 | −0.301 | −0.361 | 0.049 | 0.428 | −0.143 | −1.241 | −0.276 | −2.399 | −0.254 | −2.214 | −0.075 | −0.180 | −0.083 | −0.198 | −0.915 | −2.186 | −1.009 | −2.411 | –
COc1ccc(C(=O)N2CCCC2=O)cc1 [Aniracetam] | – | – | – | – | – | – | – | – | – | – | – | – | – | – | – | – | – | – | – | – | Dose.FC.LYZ.S ([1]; dose 0.08 uM): 0.043 log2 fold change; Dose.FC.LYZ.S ([1]; dose 0.40 uM): 0.148 log2 fold change; Dose.FC.LYZ.S ([1]; dose 2.00 uM): 0.005 log2 fold change; Dose.FC.LYZ.S ([1]; dose 10.00 uM): −0.028 log2 fold change; Dose.FC.LYZ.NS ([2]; dose 0.08 uM): 0.089 log2 fold change; Z.LYZ.NS (standard z score) ([2]; dose 0.08 uM): 0.774; Dose.FC.LYZ.NS ([2]; dose 0.40 uM): 0.056 log2 fold change; Z.LYZ.NS (standard z score) ([2]; dose 0.40 uM): 0.486; Dose.FC.LYZ.NS ([2]; dose 2.00 uM): 0.032 log2 fold change; Z.LYZ.NS (standard z score) ([2]; dose 2.00 uM): 0.277; Dose.FC.LYZ.NS ([2]; dose 10.00 uM): 0.012 log2 fold change; Z.LYZ.NS (standard z score) ([2]; dose 10.00 uM): 0.105; Dose.FC.CTG ([3]; dose 0.08 uM): −0.088 log2 fold change; Dose.FC.CTG ([3]; dose 0.40 uM): 0.112 log2 fold change; Dose.FC.CTG ([3]; dose 2.00 uM): 0.054 log2 fold change; Dose.FC.CTG ([3]; dose 10.00 uM): 0.019 log2 fold change
NC(=O)N1c2ccccc2CC(=O)c2ccccc21 [Oxcarbazepine] | – | – | – | – | – | 0.035 | – | −0.001 | – | 0.349 | – | −0.527 | – | – | – | – | – | – | – | – | Dose.FC.LYZ.S [1, 8]: 0.043 log2 fold change; Dose.FC.LYZ.S [1, 9]: 0.154 log2 fold change; Dose.FC.LYZ.S [1, 10]: 0.042 log2 fold change; Dose.FC.LYZ.S [1, 11]: −0.057 log2 fold change; Dose.FC.LYZ.NS [2, 8]: 0.004 log2 fold change; Dose.FC.LYZ.NS [2, 9]: 0.000 log2 fold change; Dose.FC.LYZ.NS [2, 10]: 0.040 log2 fold change; Dose.FC.LYZ.NS [2, 11]: −0.061 log2 fold change; Dose.FC.CTG [3, 8]: −0.021 log2 fold change; Dose.FC.CTG [3, 9]: −0.103 log2 fold change; Dose.FC.CTG [3, 10]: −0.082 log2 fold change; Dose.FC.CTG [3, 11]: −0.150 log2 fold change
Maraviroc | – | – | – | – | – | – | – | – | – | – | – | – | – | – | – | – | – | – | – | – | Dose.FC.LYZ.S (log2 fold change) ([1]; dose 0.08 uM): 0.054; Dose.FC.LYZ.S (log2 fold change) ([1]; dose 0.40 uM): 0.195; Dose.FC.LYZ.S (log2 fold change) ([1]; dose 2.00 uM): 0.005; Dose.FC.LYZ.S (log2 fold change) ([1]; dose 10.00 uM): 0.077; Dose.FC.LYZ.NS (log2 fold change) ([2]; dose 0.08 uM): 0.047; Z.LYZ.NS (standard z score) ([2]; dose 0.08 uM): 0.411; Dose.FC.LYZ.NS (log2 fold change) ([2]; dose 0.40 uM): 0.041; Z.LYZ.NS (standard z score) ([2]; dose 0.40 uM): 0.358; Dose.FC.LYZ.NS (log2 fold change) ([2]; dose 2.00 uM): 0.031; Z.LYZ.NS (standard z score) ([2]; dose 2.00 uM): 0.269; Dose.FC.LYZ.NS (log2 fold change) ([2]; dose 10.00 uM): 0.087; Z.LYZ.NS (standard z score) ([2]; dose 10.00 uM): 0.759; Dose.FC.CTG (log2 fold change) ([3]; dose 0.08 uM): −0.084; Dose.FC.CTG (log2 fold change) ([3]; dose 0.40 uM): 0.079; Dose.FC.CTG (log2 fold change) ([3]; dose 2.00 uM): −0.009; Dose.FC.CTG (log2 fold change) ([3]; dose 10.00 uM): 0.139
O=C(Nc1ccncc1)c1cc([N+](=O)[O-])ccc1Cl [T0070907] | −0.005 | −0.001 | 0.081 | −0.312 | 0.010 | 0.084 | −0.003 | −0.029 | 0.043 | 0.373 | −0.218 | −1.897 | 0.112 | 0.267 | 0.026 | 0.062 | 0.050 | 0.119 | −0.756 | −1.806 | –
